Patent publication US12559529B2, “NPY2 receptor agonists” (Boehringer Ingelheim International GmbH, priority 2019, dated 2026)

Experiments:
Solubility determination = type: physicochemical
Experimental: The peptide was dissolved by shaking the filter unit horizontally at 600 rpm for 2 hours at room temperature. […] Both the control and sample were analysed with reversed phase chromatography. The area under the peak of the sample was compared to the control and the solubility was calculated based on that ratio. The pH was measured and recorded for each sample.

[1] = target: T1, Human Neuropeptide Y2 Receptor (Homo sapiens, UniProt P49146); assay: Radioligand binding competition assay (RLB); settings: Table 2; read-out: hY2 RLB (nM) (Ex. 1)
T1 construct: purchased CHEMICON HTS066M
T1 sequence (P49146 1-381): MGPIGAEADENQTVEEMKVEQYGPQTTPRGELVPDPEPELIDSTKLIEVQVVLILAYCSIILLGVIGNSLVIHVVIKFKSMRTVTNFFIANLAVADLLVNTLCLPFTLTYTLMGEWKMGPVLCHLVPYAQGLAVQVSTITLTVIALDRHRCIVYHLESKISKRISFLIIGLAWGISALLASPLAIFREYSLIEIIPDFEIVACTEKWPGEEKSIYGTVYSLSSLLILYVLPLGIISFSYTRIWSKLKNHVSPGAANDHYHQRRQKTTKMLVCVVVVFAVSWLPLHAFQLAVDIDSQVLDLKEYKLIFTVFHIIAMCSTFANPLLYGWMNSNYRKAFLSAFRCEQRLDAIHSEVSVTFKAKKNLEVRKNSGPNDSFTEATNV
Outline: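 Membranes from cells expressing human Y2 receptor (0.5 μg protein/well) were incubated with radioligand and serially diluted peptides in 50 mM HEPES, 5 mM MgCl2, 1 mM CaCl2, 0.2% ovalbumin, pH 7.4, for 2 h at room temperature with shaking. Bound radioactivity was collected by filtration and counted; IC50 from sigmoidal nonlinear regression.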

human NPY2 receptor = target: T2, human NPY2 receptor (Homo sapiens, UniProt P49146); assay: HTRF cAMP Gi assay, hY2R
T2 sequence (P49146 1-381): T1 sequence (P49146 1-381)

Structure (SMILES): CC(C)CC(=O)N[C@@H](CCCNC(=N)N)C(=O)N1CCC[C@H]1C(=O)N[C@@H](CCC(=O)O)C(=O)N[C@@H](CCCCNC(=O)COCCOCCNC(=O)COCCOCCNC(=O)CC[C@H](NC(=O)CCCCCCCCCCCCCCCCC(=O)O)C(=O)O)C(=O)N1CCC[C@H]1C(=O)NCC(=O)N[C@@H](CCC(=O)O)C(=O)N[C@@H](CC(=O)O)C(=O)N[C@@H](C)C(=O)N[C@@H](CO)C(=O)N1CCC[C@H]1C(=O)N[C@@H](CCC(=O)O)C(=O)N[C@@H](CCC(=O)O)C(=O)N[C@@H](CC(C)C)C(=O)N[C@@H](CCC(N)=O)C(=O)N[C@@H](CCCNC(=N)N)C(=O)N[C@@H](Cc1ccc(O)cc1)C(=O)N[C@@H](Cc1ccc(O)cc1)C(=O)N[C@H](C(=O)N[C@@H](CO)C(=O)N[C@@H](CC(C)C)C(=O)N[C@@H](CCCNC(=N)N)C(=O)N[C@@H](C)C(=O)N[C@@H](Cc1ccc(O)cc1)C(=O)N[C@@H](Cc1ccc(O)cc1)C(=O)N[C@@H](CC(N)=O)C(=O)N[C@@H](Cc1c[nH]c2ccccc12)C(=O)N[C@@H](CC(C)C)C(=O)N[C@H](C(=O)N[C@@H](CCCNC(=N)N)C(=O)N[C@@H](CCC(N)=O)C(=O)N[C@@H](CCCNC(=N)N)C(=O)N[C@@H](Cc1ccc(O)cc1)C(N)=O)[C@@H](C)O)C(C)C [Ref. 3, reference compound]
- [final pH] of Sol pH 6 sample (Solubility determination; pH 6): [6.0]
- [final pH] of Sol pH 7 sample (Solubility determination; pH 7): [6.7]
- Ki [1]: 1.69 nM
- EC50 (human NPY2 receptor): 0.375 nM
